The results in this text go back to patent US11266649B2, “Pharmaceutical formulations” (Corvus Pharmaceuticals, Inc., priority 2018, dated 2022).

Data set [1] is described as follows: Storage stability: Total Impurities by stability-indicating HPLC. In kind it is physicochemical. The conditions noted are these: API (Formula (III)) itself, reference.
Data set [2] can be described thus: Particle size distribution by laser diffraction, before and after jet-mill micronization. In kind it is physicochemical. How it is done: “Particle size distribution” or “PSD” or “size distribution” refers to the size of particles present in their relative proportions in a sample, as measured by laser diffraction spectroscopy. In aspects, the particle size distribution refers to the particle size distribution of all the drug particles in the composition. The particle size distribution of a sample is measured by laser diffraction spectroscopy. Laser diffraction spectrometers are commercially available as, e.g., MASTERSIZER® 3000 from Malvern Instruments Ltd, and HORIBA® LA-950 by Horiba Instruments, Inc., Irvine Calif. For laser diffraction spectroscopy, particle size distribution is generally described by D values, such as D90. In aspects, the laser diffraction spectroscopy can be analyzed by the Fraunhofer theory. In aspects, the laser diffraction spectroscopy can be analyzed by the Mie scattering theory. In aspects, the laser diffraction spectroscopy can be analyzed by a combination of the Fraunhofer theory and the Mie scattering theory.
Formulation (III) was micronized using a Sturtevant SDM jet mill with a 2 inch diameter loop. The process parameters were: inlet air pressure 120 psi; grind chamber 100 psi; nozzle air pressure 80 psi; manual fee rate.
Formulation (III) was micronized using a Sturtevant SDM jet mill with a 4 inch diameter loop. The process parameters were: inlet air pressure 120 psi; grind chamber 100 psi; nozzle air pressure 80 psi; manual fee rate.

The mark [3] stands for this setting: 1 pass micronization, jet mill 2 inch diameter loop.
The mark [4] stands for this setting: 1 pass micronization, jet mill 4 inch diameter loop.
Where [5] appears, read: 2 pass micronization, jet mill 4 inch diameter loop.
Where [6] appears, read: Before micronization, Table 1A, jet mill 2 inch diameter loop.
Setting [7] is: Before micronization, Table 1B, jet mill 4 inch diameter loop.

`Cc1ccc(-c2nc(N)nc3c2nnn3Cc2cccc(COC3CCOC3)n2)o1` (centres unmarked) [Formula (III)]: the “Total Impurities” value in data set [1] and in data set [1] (listed as API) was 0.80% throughout. Also, the D10 was 0.9 microns in data set [2] (setting [3]); 1.1 microns in data set [2] (setting [4]); 0.9 microns in data set [2] (setting [5]); 2.3 microns in data set [2] (setting [6]); 2.3 microns in data set [2] (setting [7]). The D50 amounted to 3.3 microns in data set [2] (setting [3]); 4.3 microns in data set [2] (setting [4]); 3.1 microns in data set [2] (setting [5]); 8.6 microns in data set [2] (setting [6]); 8.6 microns in data set [2] (setting [7]). The D90 in data set [2] (setting [3]) came out at 8.2 microns; in data set [2] (setting [4]), 20.2 microns; in data set [2] (setting [5]), 8.3 microns; in data set [2] (setting [6]) it was 31.1 microns; in data set [2] (setting [7]) it was 31.1 microns.
